Results taken from the supplement of paper PMC10331698.
± gives the standard deviation of the averaged measurements.

Legend:
Assay in all cases: level (log10 ratio to DMSO vehicle control); higher = higher biomarker level / cell amount than vehicle control
Settings in all cases: in DMSO
[1] = compound: C=C(C)C(=O)OCCC(F)(F)C(F)(F)C(F)(F)C(F)(F)C(F)(C(F)(F)F)C(F)(F)F [(Perfluoro-5-methylhexyl)ethyl 2-methylprop-2-enoate]
Method: (§1)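 BioMAP Diversity Plus panel of 12 human primary cell co-culture systems (3C, 4H, LPS, SAg, BT, BF4T, BE3C, CASM3C, HDF3CGF, KF3CT, MyoF, Mphg). Compounds were added 1 h before stimulation and left for 24 h (MyoF 48 h; BT 72 h for soluble read-outs or 6 d for IgG). Biomarkers were read by ELISA, cytotoxicity by SRB, PBMC viability and proliferation by Alamar Blue. Each well value was divided by the mean of 8 DMSO control wells on the same plate and log10 transformed; duplicate blinded samples were tested at 4 concentrations.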

[2] = compound: C=CC(F)(F)C(F)(F)C(F)(F)C(F)(F)C(F)(F)C(F)(F)C(F)(F)C(F)(F)C=C [1,8-Divinylperfluorooctane]
Method: as §1

[3] = compound: FC(F)C(F)(F)COCC1CO1 [((2,2,3,3-Tetrafluoropropoxy)methyl)oxirane]
Method: as §1

[4] = compound: NC(=O)C(F)(F)C(F)(F)C(F)(F)F [Heptafluorobutyramide]
Method: as §1

[5] = compound: NC(=O)C(F)(F)C(F)(F)F [Pentafluoropropionamide]
Method: as §1

[6] = compound: NCC(F)(F)C(F)(F)C(F)(F)C(F)(F)C(F)(F)C(F)(F)C(F)(F)F [1H,1H-Perfluorooctylamine]
Method: as §1

[7] = compound: O=C(O)C(F)(F)OC(F)(F)C(F)(F)OC(F)(F)F [Perfluoro-3,6-dioxaheptanoic acid]
Method: as §1

Row | Test System | level (log10) ([1]; 6700 nM) | level (log10) ([1]; 20000 nM) | level (log10) ([2]; 6700 nM) | level (log10) ([2]; 20000 nM) | level (log10) ([3]; 6700 nM) | level (log10) ([3]; 20000 nM) | level (log10) ([3]; 60000 nM) | level (log10) ([4]; 6700 nM) | level (log10) ([4]; 20000 nM) | level (log10) ([4]; 60000 nM) | level (log10) ([5]; 6700 nM) | level (log10) ([5]; 20000 nM) | level (log10) ([5]; 60000 nM) | level (log10) ([6]; 6700 nM) | level (log10) ([6]; 20000 nM) | level (log10) ([6]; 60000 nM) | level (log10) ([7]; 6700 nM) | level (log10) ([7]; 20000 nM) | level (log10) ([7]; 60000 nM)
1 | HDF3CGF:Collagen III | -0.0195 ± 0.05 | 0.0105 ± 0.05 | 0.001 ± 0.024 | -0.0125 ± 0.029 | -0.002 ± 0.037 | -0.0115 ± 0.00071 | -0.0035 ± 0.011 | -0.017 ± 0.014 | -0.006 ± 0.013 | -0.0145 ± 0.005 | 0.026 ± 0.02 | 0.009 ± 0.028 | 0.034 ± 0.0028 | -0.009 ± 0.021 | -0.0055 ± 0.00071 | -0.0165 ± 0.023 | 0.0025 ± 0.0078 | 0.0225 ± 0.0035 | 0.0375 ± 0.022
2 | MyoF:MMP-1 | -0.023 ± 0.0057 | -0.0365 ± 0.074 | -0.054 ± 0.037 | 0.034 ± 0.099 | 0.0115 ± 0.0035 | -0.031 ± 0.018 | 0.0045 ± 0.005 | -0.0185 ± 0.018 | -0.0105 ± 0.049 | 0.027 ± 0.082 | -0.0305 ± 0.063 | -0.0255 ± 0.0064 | 0.016 ± 0.058 | -0.0095 ± 0.016 | -0.0395 ± 0.012 | -0.0055 ± 0.025 | -0.0045 ± 0.0021 | -0.0545 ± 0.013 | 0.041 ± 0.054
3 | lMphg:M-CSF | -0.005 ± 0.042 | 0.015 ± 0.042 | -0.0315 ± 0.005 | 0.0015 ± 0.039 | -0.0155 ± 0.013 | 0 ± 0.024 | -0.0265 ± 0.015 | -0.014 ± 0.018 | -0.034 ± 0.025 | -0.0135 ± 0.00071 | -0.0185 ± 0.0035 | -0.0285 ± 0.0021 | 0.002 ± 0.028 | -0.024 ± 0.033 | -0.0185 ± 0.005 | -0.0245 ± 0.0021 | -0.011 ± 0.016 | 0.003 ± 0.013 | -0.0345 ± 0.029
4 | HDF3CGF:CD106/VCAM-1 | 0.02 ± 0.023 | -0.0275 ± 0.011 | -0.028 ± 0.021 | -0.016 ± 0.017 | -0.001 ± 0.016 | -0.0075 ± 0.023 | -0.0295 ± 0.037 | 0.0035 ± 0.0092 | -0.012 ± 0.018 | -0.0345 ± 0.054 | -0.0335 ± 0.022 | -0.0305 ± 0.025 | -0.0225 ± 0.044 | -0.0015 ± 0.0078 | -0.0445 ± 0.074 | -0.08 ± 0.095 | -0.033 ± 0.024 | 0.023 ± 0.082 | -0.039 ± 0.061
5 | MyoF:SRB | 0.001 ± 0.014 | -0.0035 ± 0.0078 | 0.0165 ± 0.013 | 0.006 ± 0.0057 | -0.003 | -0.007 ± 0.0042 | -0.0035 ± 0.0035 | -0.011 ± 0.017 | -0.0035 ± 0.0078 | -0.0005 ± 0.005 | 0.0045 ± 0.0021 | -0.007 ± 0.0057 | -0.0015 ± 0.0035 | 0.0035 ± 0.0021 | -0.002 ± 0.0057 | 0.0005 ± 0.005 | -0.0055 ± 0.0035 | -0.0015 ± 0.00071 | 0.004 ± 0.0085
6 | HDF3CGF:CXCL10/IP-10 | -0.0005 ± 0.0078 | -0.003 | 0.0205 ± 0.035 | 0.017 ± 0.035 | -0.0085 ± 0.032 | -0.033 ± 0.0057 | -0.0175 ± 0.023 | 0.007 ± 0.0099 | 0 ± 0.0057 | 0.0035 ± 0.011 | -0.0075 ± 0.022 | -0.009 ± 0.011 | 0.006 ± 0.04 | 0.0115 ± 0.03 | -0.006 ± 0.011 | -0.0005 ± 0.00071 | 0.007 ± 0.011 | 0.0095 ± 0.0078 | -0.0075 ± 0.043
7 | KF3CT:TIMP-2 | -0.016 ± 0.03 | -0.041 ± 0.052 | -0.021 ± 0.021 | -0.0205 ± 0.032 | -0.0135 ± 0.016 | -0.0115 ± 0.019 | -0.0045 ± 0.026 | -0.001 ± 0.011 | 0.0075 ± 0.0035 | 0.008 ± 0.0042 | 0.0005 ± 0.026 | 0.004 ± 0.027 | 0.0305 ± 0.013 | -0.013 | -0.01 ± 0.018 | -0.017 ± 0.013 | 0.024 ± 0.069 | -0.0365 ± 0.13 | -0.01 ± 0.12
8 | BE3C:uPA | -0.001 ± 0.016 | -0.0005 ± 0.016 | -0.0245 ± 0.0064 | -0.0315 ± 0.0078 | -0.0105 ± 0.025 | -0.021 ± 0.035 | -0.004 ± 0.025 | -0.011 ± 0.02 | -0.017 ± 0.024 | -0.0145 ± 0.019 | -0.0305 ± 0.028 | -0.0265 ± 0.015 | -0.011 ± 0.014 | -0.011 ± 0.011 | -0.0135 ± 0.0021 | -0.002 ± 0.014 | -0.0495 ± 0.079 | -0.028 ± 0.069 | -0.011 ± 0.041
9 | KF3CT:IL-1alpha | -0.014 ± 0.0028 | -0.0225 ± 0.0035 | -0.0455 ± 0.013 | -0.0075 ± 0.057 | 0.006 ± 0.011 | -0.0085 ± 0.013 | 0.0055 ± 0.039 | -0.0035 ± 0.0064 | 0.013 ± 0.0057 | -0.0005 ± 0.032 | -0.0165 ± 0.005 | -0.034 ± 0.0085 | -0.0105 ± 0.044 | -0.0225 ± 0.0035 | -0.001 ± 0.013 | -0.0095 ± 0.0021 | -0.011 ± 0.025 | 0.032 ± 0.03 | -0.1 ± 0.067
10 | CASM3C:SRB | -0.0025 ± 0.005 | -0.0095 ± 0.0035 | 0.002 ± 0.0042 | -0.003 ± 0.0014 | -0.0005 ± 0.015 | -0.003 ± 0.0042 | 0.0015 ± 0.00071 | -0.0135 ± 0.0078 | 0 ± 0.018 | -0.0065 ± 0.0078 | -0.002 ± 0.0057 | 0 ± 0.0085 | -0.0045 ± 0.00071 | -0.002 ± 0.0028 | -0.001 ± 0.013 | 0.0035 ± 0.018 | -0.0065 ± 0.00071 | -0.002 ± 0.0028 | -0.0005 ± 0.0035
11 | BE3C:SRB | 0.009 ± 0.0099 | 0.0065 ± 0.016 | -0.0005 ± 0.00071 | 0 ± 0.0014 | -0.0015 ± 0.005 | -0.001 ± 0.0014 | 0.0085 ± 0.023 | -0.0025 ± 0.0035 | 0.0005 ± 0.00071 | -0.002 ± 0.0042 | -0.0015 ± 0.0021 | -0.001 | -0.0015 ± 0.005 | 0 | 0.0035 ± 0.00071 | 0.013 ± 0.024 | 0.0005 ± 0.0064 | -0.0025 ± 0.00071 | 0.0015 ± 0.0064
12 | KF3CT:CXCL8/IL-8 | -0.013 ± 0.037 | 0.006 ± 0.03 | -0.0035 ± 0.033 | 0.011 ± 0.0057 | -0.024 ± 0.02 | -0.0035 ± 0.0092 | -0.001 ± 0.0071 | 0.003 | 0.002 ± 0.0085 | 0.0095 ± 0.012 | -0.005 ± 0.0042 | -0.0105 ± 0.005 | 0.0215 ± 0.012 | -0.0205 ± 0.035 | -0.0295 ± 0.029 | -0.014 ± 0.0085 | -0.0075 ± 0.015 | 0.005 ± 0.011 | 0.0515 ± 0.033
13 | CASM3C:CD142/Tissue Factor | -0.037 ± 0.024 | -0.0265 ± 0.056 | 0.0035 ± 0.028 | -0.0085 ± 0.005 | 0.0075 ± 0.013 | -0.0005 ± 0.037 | 0.0385 ± 0.083 | 0.007 ± 0.034 | -0.0105 ± 0.05 | -0.031 ± 0.041 | -0.0025 ± 0.022 | -0.0095 ± 0.018 | -0.0295 ± 0.026 | -0.018 ± 0.0014 | -0.0135 ± 0.015 | 0.021 ± 0.03 | -0.049 ± 0.089 | -0.0195 ± 0.097 | 0.014 ± 0.088
14 | MyoF:PAI-I | -0.0025 ± 0.011 | -0.019 ± 0.0085 | 0.003 ± 0.0071 | 0.006 ± 0.0071 | -0.008 ± 0.0028 | -0.002 ± 0.0085 | -0.0115 ± 0.0064 | 0.0035 ± 0.00071 | 0.01 ± 0.0014 | -0.0055 ± 0.016 | 0.0075 ± 0.0021 | -0.002 ± 0.0071 | -0.004 ± 0.0057 | 0 ± 0.016 | -0.002 ± 0.014 | -0.005 ± 0.013 | -0.019 ± 0.038 | -0.0245 ± 0.03 | -0.0275 ± 0.025
15 | BE3C:Keratin 8/18 | -0.0185 ± 0.0092 | 0.0005 ± 0.0064 | 0.0015 ± 0.005 | -0.0165 ± 0.005 | -0.004 ± 0.0071 | -0.019 ± 0.031 | -0.0045 ± 0.0021 | -0.007 ± 0.0071 | -0.028 ± 0.0071 | -0.0265 ± 0.0078 | -0.0185 ± 0.0021 | -0.0185 ± 0.005 | -0.0185 ± 0.018 | -0.009 ± 0.0071 | -0.024 ± 0.0099 | -0.0005 ± 0.0078 | -0.033 ± 0.041 | -0.0085 ± 0.022 | -0.03 ± 0.017
